In paper PMC11845477, “Exploring the principles behind antibiotics with limited resistance” (Nature Communications, 2025):

How the values were obtained:
[1] = tested on: E. coli ATCC 25922 (SEN) and E. coli NCTC13846 (MDR); assay: Adaptive laboratory evolution (ALE), relative MIC of evolved lines; format: cell-based, Escherichia coli
Procedure, shortened: (§1)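 Ten parallel populations per antibiotic–ancestor pair were evolved in MHB at 37 °C, starting near 50% growth-inhibiting drug. Every 72 h they were passaged into 0.5–2.5× increasing concentrations, keeping the highest-drug well with OD600 > 0.2.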

[2] = tested on: A. baumannii ATCC 17978 (SEN) and A. baumannii ATCC BAA-1605 (MDR); assay: as above; format: cell-based, Acinetobacter baumannii
Procedure, shortened: as §1

C[C@@H](O)[C@H]1C(=O)N2C(C(=O)O)=C(S[C@H]3CC[S@@+]([O-])C3)S[C@H]12 [Sulopenem]
MIC of evolved line ([1]; EC-MDR (E. coli NCTC 13846), evolved line 1 of the given antibiotic): 16 µg/mL | Relative MIC ([1]; EC-MDR (E. coli NCTC 13846), evolved line 1 vs ancestor): 512 | MIC of evolved line ([1]; EC-MDR (E. coli NCTC 13846), evolved line 2 of the given antibiotic): 0.5 µg/mL | Relative MIC ([1]; EC-MDR (E. coli NCTC 13846), evolved line 2 vs ancestor): 16 | MIC of evolved line ([1]; EC-MDR (E. coli NCTC 13846), evolved line 3 of the given antibiotic): 4 µg/mL | Relative MIC ([1]; EC-MDR (E. coli NCTC 13846), evolved line 3 vs ancestor): 128 | MIC of evolved line ([1]; EC-MDR (E. coli NCTC 13846), evolved line 4 of the given antibiotic): 4 µg/mL | Relative MIC ([1]; EC-MDR (E. coli NCTC 13846), evolved line 4 vs ancestor): 128 | MIC of evolved line ([1]; EC-MDR (E. coli NCTC 13846), evolved line 5 of the given antibiotic): 16 µg/mL | Relative MIC ([1]; EC-MDR (E. coli NCTC 13846), evolved line 5 vs ancestor): 512 | MIC of evolved line ([1]; EC-MDR (E. coli NCTC 13846), evolved line 7 of the given antibiotic): 0.5 µg/mL | Relative MIC ([1]; EC-MDR (E. coli NCTC 13846), evolved line 7 vs ancestor): 16 | MIC of evolved line ([1]; EC-MDR (E. coli NCTC 13846), evolved line 8 of the given antibiotic): 4 µg/mL | Relative MIC ([1]; EC-MDR (E. coli NCTC 13846), evolved line 8 vs ancestor): 128 | MIC of evolved line ([1]; EC-MDR (E. coli NCTC 13846), evolved line 9 of the given antibiotic): 8 µg/mL | Relative MIC ([1]; EC-MDR (E. coli NCTC 13846), evolved line 9 vs ancestor): 256 | MIC of evolved line ([1]; EC-MDR (E. coli NCTC 13846), evolved line 10 of the given antibiotic): 4 µg/mL | Relative MIC ([1]; EC-MDR (E. coli NCTC 13846), evolved line 10 vs ancestor): 128 | Relative MIC (log10) ([1]; EC-MDR (Escherichia coli NCTC 13846), evolved line 4): 2.107 log10 | Relative MIC (log10) ([1]; EC-MDR (Escherichia coli NCTC 13846), evolved line 5): 2.709 log10 | Relative MIC (log10) ([1]; EC-MDR (Escherichia coli NCTC 13846), evolved line 8): 2.107 log10 | Relative MIC (log10) ([1]; EC-MDR (Escherichia coli NCTC 13846), evolved line 9): 2.408 log10 | Relative MIC (log10) ([1]; EC-MDR (Escherichia coli NCTC 13846), evolved line 10): 2.107 log10 | MIC of evolved line ([1]; EC-SEN (E. coli ATCC 25922), evolved line 5 of the given antibiotic): 0.25 µg/mL | Relative MIC ([1]; EC-SEN (E. coli ATCC 25922), evolved line 5 vs ancestor): 8 | MIC of evolved line ([1]; EC-SEN (E. coli ATCC 25922), evolved line 6 of the given antibiotic): 0.25 µg/mL | Relative MIC ([1]; EC-SEN (E. coli ATCC 25922), evolved line 6 vs ancestor): 8 | MIC of evolved line ([1]; EC-SEN (E. coli ATCC 25922), evolved line 7 of the given antibiotic): 0.25 µg/mL | Relative MIC ([1]; EC-SEN (E. coli ATCC 25922), evolved line 7 vs ancestor): 8 | MIC of evolved line ([1]; EC-SEN (E. coli ATCC 25922), evolved line 8 of the given antibiotic): 0.25 µg/mL | Relative MIC ([1]; EC-SEN (E. coli ATCC 25922), evolved line 8 vs ancestor): 8 | MIC of evolved line ([1]; EC-SEN (E. coli ATCC 25922), evolved line 9 of the given antibiotic): 0.125 µg/mL | Relative MIC ([1]; EC-SEN (E. coli ATCC 25922), evolved line 9 vs ancestor): 4 | MIC of evolved line ([1]; EC-SEN (E. coli ATCC 25922), evolved line 10 of the given antibiotic): 0.125 µg/mL | Relative MIC ([1]; EC-SEN (E. coli ATCC 25922), evolved line 10 vs ancestor): 4 | Relative MIC (log10) ([1]; EC-SEN (Escherichia coli ATCC 25922), evolved line 6): 0.9031 log10 | Relative MIC (log10) ([1]; EC-SEN (Escherichia coli ATCC 25922), evolved line 7): 0.9031 log10 | Relative MIC (log10) ([1]; EC-SEN (Escherichia coli ATCC 25922), evolved line 8): 0.9031 log10 | Relative MIC (log10) ([1]; EC-SEN (Escherichia coli ATCC 25922), evolved line 9): 0.6021 log10 | Relative MIC (log10) ([1]; EC-SEN (Escherichia coli ATCC 25922), evolved line 10): 0.6021 log10 | Relative MIC ([1]; Escherichia coli ATCC 25922 (EC-SEN), evolved line 5): 8 | Relative MIC ([1]; Escherichia coli ATCC 25922 (EC-SEN), evolved line 6): 8 | Relative MIC ([1]; Escherichia coli ATCC 25922 (EC-SEN), evolved line 7): 8 | Relative MIC ([1]; Escherichia coli ATCC 25922 (EC-SEN), evolved line 8): 8 | Relative MIC ([1]; Escherichia coli ATCC 25922 (EC-SEN), evolved line 9): 4 | Relative MIC ([1]; Escherichia coli ATCC 25922 (EC-SEN), evolved line 10): 4 | Relative MIC ([1]; Escherichia coli NCTC 13846 (EC-MDR), evolved line 1): 512 | Relative MIC ([1]; Escherichia coli NCTC 13846 (EC-MDR), evolved line 2): 16 | Relative MIC ([1]; Escherichia coli NCTC 13846 (EC-MDR), evolved line 3): 128 | Relative MIC ([1]; Escherichia coli NCTC 13846 (EC-MDR), evolved line 4): 128 | Relative MIC ([1]; Escherichia coli NCTC 13846 (EC-MDR), evolved line 5): 512 | Relative MIC ([1]; Escherichia coli NCTC 13846 (EC-MDR), evolved line 7): 16 | Relative MIC ([1]; Escherichia coli NCTC 13846 (EC-MDR), evolved line 8): 128 | Relative MIC ([1]; Escherichia coli NCTC 13846 (EC-MDR), evolved line 9): 256 | Relative MIC ([1]; Escherichia coli NCTC 13846 (EC-MDR), evolved line 10): 128 | MIC of evolved line ([2]; AB-SEN (A. baumannii ATCC 17978), evolved line 1 of the given antibiotic): 8 µg/mL | Relative MIC ([2]; AB-SEN (A. baumannii ATCC 17978), evolved line 1 vs ancestor): 8 | MIC of evolved line ([2]; AB-SEN (A. baumannii ATCC 17978), evolved line 2 of the given antibiotic): 1 µg/mL | Relative MIC ([2]; AB-SEN (A. baumannii ATCC 17978), evolved line 2 vs ancestor): 1 | MIC of evolved line ([2]; AB-SEN (A. baumannii ATCC 17978), evolved line 3 of the given antibiotic): 16 µg/mL | Relative MIC ([2]; AB-SEN (A. baumannii ATCC 17978), evolved line 3 vs ancestor): 16 | MIC of evolved line ([2]; AB-SEN (A. baumannii ATCC 17978), evolved line 4 of the given antibiotic): 16 µg/mL | Relative MIC ([2]; AB-SEN (A. baumannii ATCC 17978), evolved line 4 vs ancestor): 16 | MIC of evolved line ([2]; AB-SEN (A. baumannii ATCC 17978), evolved line 5 of the given antibiotic): 64 µg/mL | Relative MIC ([2]; AB-SEN (A. baumannii ATCC 17978), evolved line 5 vs ancestor): 64 | MIC of evolved line ([2]; AB-SEN (A. baumannii ATCC 17978), evolved line 6 of the given antibiotic): 16 µg/mL | Relative MIC ([2]; AB-SEN (A. baumannii ATCC 17978), evolved line 6 vs ancestor): 16 | MIC of evolved line ([2]; AB-SEN (A. baumannii ATCC 17978), evolved line 7 of the given antibiotic): 16 µg/mL | Relative MIC ([2]; AB-SEN (A. baumannii ATCC 17978), evolved line 7 vs ancestor): 16 | MIC of evolved line ([2]; AB-SEN (A. baumannii ATCC 17978), evolved line 8 of the given antibiotic): 8 µg/mL | Relative MIC ([2]; AB-SEN (A. baumannii ATCC 17978), evolved line 8 vs ancestor): 8 | MIC of evolved line ([2]; AB-SEN (A. baumannii ATCC 17978), evolved line 9 of the given antibiotic): 16 µg/mL | Relative MIC ([2]; AB-SEN (A. baumannii ATCC 17978), evolved line 9 vs ancestor): 16 | Relative MIC (log10) ([2]; AB-SEN (Acinetobacter baumannii ATCC 17978), evolved line 1): 0.9031 log10 | Relative MIC (log10) ([2]; AB-SEN (Acinetobacter baumannii ATCC 17978), evolved line 3): 1.204 log10 | Relative MIC (log10) ([2]; AB-SEN (Acinetobacter baumannii ATCC 17978), evolved line 5): 1.806 log10 | Relative MIC (log10) ([2]; AB-SEN (Acinetobacter baumannii ATCC 17978), evolved line 9): 1.204 log10 | Relative MIC (log10) ([2]; AB-SEN, Acinetobacter baumannii ATCC 17978, evolved line 7): 1.204 log10 | Relative MIC ([2]; Acinetobacter baumannii ATCC 17978 (AB-SEN), evolved line 1): 8 | Relative MIC ([2]; Acinetobacter baumannii ATCC 17978 (AB-SEN), evolved line 2): 1 | Relative MIC ([2]; Acinetobacter baumannii ATCC 17978 (AB-SEN), evolved line 3): 16 | Relative MIC ([2]; Acinetobacter baumannii ATCC 17978 (AB-SEN), evolved line 4): 16 | Relative MIC ([2]; Acinetobacter baumannii ATCC 17978 (AB-SEN), evolved line 5): 64 | Relative MIC ([2]; Acinetobacter baumannii ATCC 17978 (AB-SEN), evolved line 6): 16 | Relative MIC ([2]; Acinetobacter baumannii ATCC 17978 (AB-SEN), evolved line 7): 16 | Relative MIC ([2]; Acinetobacter baumannii ATCC 17978 (AB-SEN), evolved line 8): 8 | Relative MIC ([2]; Acinetobacter baumannii ATCC 17978 (AB-SEN), evolved line 9): 16
